According to patent US5952510A, “1,3-dihydro-1-(phenylalkenyl)-2H-imidazol-2-one derivatives having PDE IV and cytokine inhibiting activity” (Janssen Pharmaceutica, N.V., priority 1995, dated 1999):

Legend:
[1] = tested on: Dextran-induced oedema formation in mouse ear; assay: Dextran-induced oedema formation in mouse ear; type: in vivo, Male Swiss mice; details: 5 mg/kg, oral, one hour before intravenous dextran T500 + pontamine sky-blue dye; compared with background extravasation
Protocol: Dextran-induced oedema formation in mouse ear.
Systemic injection of dextran T500 in normal, non-sensitized mice elicits increased vascular permeability, leading to extravasation and oedema of the extremities. When dextran is injected together with a blue dye, blueing of the ears is the most prominent feature of oedematous response.
Male Swiss mice weighing 24-26 g were orally pretreated with the test compound dissolved in PEG-200 at different concentrations or solvent. One hour later, the mice were given an intravenous injection with an isotonic saline solution containing 12 mg/ml dextran T500 and 2.6 mg/ml pontamine sky-blue dye, in a volume of 0.1 ml per 10 g body weight. One hour and forty-five minutes later, the animals are sacrificed by ether and their ears removed. Extraction and quantification of the extravasated dye is done as described by Van Wauwe and Goossens (Drug Dev. Res. 1986, 8, 213-218).
The extravasation of the dye is characterized by the blueing value which is defined as the concentration of the extracted dye in both ears. The background blueing value was determined once as the mean blueing value obtained by injecting a group of mice with a saline solution containing only dextran T500 and the blue dye. Table 1 lists the percentage inhibition of the extravasation of the dye when compared with the background extravasation of the dye when the test compound was administered at a dose of 5 mg/kg.

[2] = molecular target: T1, recombinant human MNL phosphodiesterase type IV B (Homo sapiens, UniProt Q07343); assay: Inhibition of recombinant human mononuclear lymphocyte (MNL) phosphodiesterase type IV B produced in insect cells with a baculovirus vector; type: biochemical; details: 0.8 μM 3H-cAMP, pH 8, 37° C., 10 min; calculated graphically
T1 construct: made in house; host or cells: insect cells infected with recombinant baculovirus
T1 sequence (Q07343 whole entry): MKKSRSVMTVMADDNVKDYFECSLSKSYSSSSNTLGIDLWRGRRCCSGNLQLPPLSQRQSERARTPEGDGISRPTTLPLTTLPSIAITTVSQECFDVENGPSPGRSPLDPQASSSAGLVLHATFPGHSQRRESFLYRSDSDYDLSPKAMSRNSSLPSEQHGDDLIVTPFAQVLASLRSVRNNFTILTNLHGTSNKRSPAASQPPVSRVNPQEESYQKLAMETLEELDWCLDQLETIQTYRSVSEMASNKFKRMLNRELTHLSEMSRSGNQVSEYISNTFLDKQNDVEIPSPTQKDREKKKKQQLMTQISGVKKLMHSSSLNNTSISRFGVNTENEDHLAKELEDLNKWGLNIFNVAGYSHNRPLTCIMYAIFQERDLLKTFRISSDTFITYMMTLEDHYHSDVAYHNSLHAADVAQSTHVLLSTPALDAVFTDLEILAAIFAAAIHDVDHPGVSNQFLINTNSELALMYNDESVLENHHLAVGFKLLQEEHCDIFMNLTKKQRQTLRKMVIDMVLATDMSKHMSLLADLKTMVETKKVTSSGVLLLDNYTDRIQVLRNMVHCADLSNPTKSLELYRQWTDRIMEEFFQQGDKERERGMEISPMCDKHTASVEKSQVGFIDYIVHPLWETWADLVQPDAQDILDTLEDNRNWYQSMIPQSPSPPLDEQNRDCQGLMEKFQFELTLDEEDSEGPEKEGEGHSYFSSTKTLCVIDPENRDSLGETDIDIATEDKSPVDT
Protocol: Inhibition of recombinant human mononuclear lymphocyte (MNL) phosphodiesterase type IV B produced in insect cells with a baculovirus vector, The alleviating and/or curing effect of the instant compounds on allergic and atopic diseases was assessed by an in vitro assay system to detect an inhibiting effect on the recombinant human MNL phosphodiesterase type IV B.
Seventy-two hours after infection with recombinant baculovirus, the insect cells were harvested and pelleted at 500 g for 5 minutes. The cells were lysed in 10 ml lysis-buffer consisting of 20 mM Tris, 10 mM EGTA, 2 mM Na2 EDTA, 1% Triton-X-100, 1 mM Na3 VO4, 10 mM NaF, 2 μg/ml of leupeptine, pepstatine and aprotinine, 0.3 μg/ml benzamidine and 100 μg/ml TPCK pH 7.5. After 5 minutes on ice, solubilized cells were centrifuged at 4000 rpm for 15 minutes at 4° C. The resulting supernatant was filtered through a 0.45 μm filter (Millipore) and brought to TBS buffer (50 mM Tris, 150 mM NaCl pH 7.4).
The supernatant containing phosphodiesterase (PDE) type IV B, was subsequently loaded onto a 5 ml anti-FLAG-M2 affinity gel column, previously activated with 5 ml 100 mM glycine pH 3.5 and equilibrated with 20 ml 50 mM Tris, 150 mM NaCl pH 7.4. After washing the column with equilibration buffer, PDE IV was eluted in 1.5 ml fractions containing 37.5 μl 1M Tris pH 8. The fractions were dialyzed overnight against 20 mM Tris, 2 mM Na2 EDTA and 400 mM NaCl pH 7.5 and tested for PDE IV activity. Indentification was done on SDS PAGE and Western Blot (anti-FLAG-M2). Active fractions were pooled, brought to 10% glycerol and stored at -70° C.
The incubation mixture (pH 8) (200 μl) contained 20 mM Tris, 10 mM magnesium sulphate, 0.8 μM ^3 H-cAMP (310 mCi/mmole) and the phosphodiesterase type IV, the amount depending on the enzymatic activity. […]
The inhibiting effect of the present compounds on recombinant human MNL phosphodiesterase PDE IV B was measured at different concentrations of the instant compounds. The IC50 values (expressed in M) were calculated graphically from the thus obtained inhibition values.

IC50 [2] [nM]	Compound	% inhibition of the extravasation of the dye [1] [%]
	COc1ccc(/C(=C\n2cc[nH]c2=O)CC(=O)O)cc1OC1CCCC1 [Compound 7, (Z)-3-(cyclopentyloxy)-β-[(2,3-dihydro-2-oxo-1H-imidazol-1-yl)methylene]4-methoxybenzenepropanoic acid]	49.9
	COc1ccc(C(=CN2CCN(C(C)=O)C2=O)c2ccccc2)cc1OC [Compound 9, 1-acetyl-3-[2-(3,4dimethoxyphenyl)-2-phenylethenyl]-2-imidazolidinone]	11.1
< 1000	COc1ccc(/C(C)=C\n2ccn(C(c3ccccc3)c3ccccc3)c2=O)cc1OC1CCCC1 [Compound 12, (Z)-1-[2-[3-(cyclopentyloxy)-4-methoxyphenyl]-1-propenyl]-3-(diphenylmethyl)-2H-imidazol-2-one]	
	COc1ccc(/C(=C/n2ccn(C(c3ccccc3)c3ccccc3)c2=O)c2ccccc2)cc1OC1CCCC1 [Compound 10, (E)-1-[2-[3-(cyclopentyloxy)-4-methoxyphenyl]-2-phenylethenyl]-3-(diphenylmethyl)-1,3dihydro-2H-imidazol-2-one]	40.1
< 1000	COc1ccc(/C(=C/n2cc[nH]c2=O)c2ccccc2)cc1OC1CCCC1 [Compound 2, (E)-1-[2-[3-(cyclopentyloxy)-4-methoxyphenyl]-2-phenylethenyl]-1,3-dihydro-2H-imidazol-2-one]	15.5
< 1000	CCOC(=O)C/C(=C\n1cc[nH]c1=O)c1ccc(OC)c(OC2CCCC2)c1 [Compound 4, ethyl (E)-3-(cyclopentyloxy)-β-[(2,3dihydro-2-oxo-1H-imidazol-1-yl)methylene]-4methoxybenzene-propanoate]	25.9
	COc1ccc(/C(=C\n2ccn(C(c3ccccc3)c3ccccc3)c2=O)c2ccccc2)cc1OC1CCCC1 [Compound 11, (Z)-1-[2-[3-(cyclopentyloxy)-4-methoxyphenyl]-2-phenylethenyl]-3-(diphenylmethyl)-1,3-dihydro-2H-imidazol-2-one]	19.3
	COc1ccc(C(=CN2CCNC2=O)c2ccccc2)cc1OC [Compound 8, 1-[2-(3,4-dimethoxyphenyl)-2-phenylethenyl]-2-imidazolidinone]	17.9
